Assay results as given in publication PMC5608352, “Formyl peptide derived lipopeptides disclose differences between the receptors in mouse and men and call the pepducin concept in question” (PLoS ONE, 2017).
Entries after “also recorded” stand apart in the source; their conditions may differ. Each block holds one molecule with its values, some of them ahead of it. No end group written: not given here. *: point of attachment. Palmitoyl = CCCCCCCCCCCCCCCC(=O)*

Legend:
Fpr2 [1] = molecular target: T1, Fpr2 (Mus musculus, UniProt O88536); assay: Inhibition of F2Pal16-induced superoxide release, WT mouse neutrophils; type: cell-based; conditions: Boc2 2 μM or peptidomimetic inhibitor 1 μM (five experiments), or mF2Pal16 500 nM against F2Pal16 500 nM (three experiments); 5 min pre-incubation
T1 construct: WT mouse neutrophils (5 x 10^4 cells) were pre-incubated without (solid line) or with mF2Pal16; endogenous in cells; host or cells: bone marrow neutrophils of C57BL/6 wild-type mice, TNF-alpha primed
T1 sequence (O88536 1-351): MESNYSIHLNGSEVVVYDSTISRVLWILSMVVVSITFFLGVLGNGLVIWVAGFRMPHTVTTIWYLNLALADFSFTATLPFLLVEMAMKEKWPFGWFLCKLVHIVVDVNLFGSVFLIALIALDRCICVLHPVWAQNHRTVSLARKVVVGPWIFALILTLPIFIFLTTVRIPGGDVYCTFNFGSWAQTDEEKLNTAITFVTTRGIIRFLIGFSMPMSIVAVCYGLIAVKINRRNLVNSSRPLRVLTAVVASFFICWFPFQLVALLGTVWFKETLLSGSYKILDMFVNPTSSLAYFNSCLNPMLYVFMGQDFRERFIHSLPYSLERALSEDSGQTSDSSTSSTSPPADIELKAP
Description: Mice (8–12 weeks of age) were killed by cervical dislocation, the femurs and tibias were removed and freed of soft tissue attachments, and the extreme distal tip of each extremity was cut off. KRG without Ca^2+ and Mg^2+ (KRG-) was forced through the bone by using a 1-mL syringe with a 27-gauge needle. After dispersing cell clumps and removing the debris, the bone marrow granulocytes were isolated according to an earlier described procedure with some modifications. Briefly, a cell suspension in 2 mL of KRG- was laid on top of a three-layer Percoll gradient (1.095, 1.085, and 1.070 g/mL). The density of each Percoll solution was verified using density marker beads. After centrifugation at 500 × g for 30 min at 4°C in a swinging bucket rotor, the lowest band (1.085/1.095 g/mL interface) was collected as the neutrophil fraction. After washing with KRG-, remaining red blood cells were eliminated by hypotonic lysis. After a final wash with KRG-, the cells were resuspended in KRG. The cell number and population of bone marrow cells were determined by flow cytometry based on forward scatter (size) and side scatter (density) localization.
(§1) NADPH-oxidase activity was determined using an isoluminol and HRP-enhanced chemiluminescence (CL) system that allow for the determination of superoxide production. The CL activity was measured in a six-channel Biolumat LB 9505 apparatus (Berthold Co., Wildbad, Germany), using disposable 4-mL polypropylene tubes with 1 mL reaction mixture. […] The light emission was recorded continuously over time and presented as superoxide production (in arbitrary light units, cpm x10^-6) as a function of time (min). The activity before stimulus addition was recorded as basal line and this activity was not changed in vehicle control samples. […]
Data analysis was performed using Graph Pad Prism 7.0. The EC50/IC50 values were determined from experiments in which the activities were normalized to the response induced by maximal response or induced by agonist in the absence of inhibitor. […]

Fpr2^-/- neutrophils = assay: Inhibition of F2Pal16-induced superoxide release, Fpr2^-/- mouse neutrophils; type: cell-based; conditions: Boc2 2 μM, 5 min pre-incubation; F2Pal16 500 nM
Description: (§2) C57BL/6 wild-type mice were purchased from Charles River Laboratories and Fpr2^−/− mice generated as described previously, were generously provided by Dr Ji Ming Wang, Frederick National Laboratory for Cancer Research, USA. Mice were kept under standard temperature and light conditions and fed laboratory chow and water ad libitum, at the Department of Rheumatology and Inflammation Research, University of Gothenburg. Sex matched WT and Fpr2^-/- animals (age 8–10 weeks) were used to isolated bone marrow derived neutrophils. The studies performed were approved by the Ethical Committee for Animal Experimentation, Göteborg, Sweden.
(§3) Mice (8–12 weeks of age) were killed by cervical dislocation, the femurs and tibias were removed and freed of soft tissue attachments, and the extreme distal tip of each extremity was cut off. […] The cell number and population of bone marrow cells were determined by flow cytometry based on forward scatter (size) and side scatter (density) localization.
(§4) NADPH-oxidase activity was determined using an isoluminol and HRP-enhanced chemiluminescence (CL) system that allow for the determination of superoxide production. The CL activity was measured in a six-channel Biolumat LB 9505 apparatus (Berthold Co., Wildbad, Germany), using disposable 4-mL polypropylene tubes with 1 mL reaction mixture. […]

Fpr1 = assay: Inhibition of fMIFL-induced superoxide release, Fpr2^-/- mouse neutrophils; type: cell-based; conditions: Boc2 2 μM, 5 min pre-incubation; fMIFL 10 nM
Description: as §2, §3, §4

FPR2 [2] = assay: Inhibition of F2Pal16 (FPR2 activating pepducin)-induced superoxide release, human neutrophils; type: cell-based; conditions: PBP10 1 μM or CysH 1 μM, 5 min pre-incubation; F2Pal16 1 μM; five experiments
Description: Human peripheral blood neutrophils were isolated from buffy coats from healthy blood donors using dextran sedimentation and Ficoll-Paque gradient centrifugation as described. The remaining erythrocytes were disrupted by hypotonic lysis and the neutrophils were washed twice, suspended in KRG and, stored on melting ice until use. This isolation process permits cells to be purified with minimal granule mobilization. The buffy coats were obtained from the blood bank at Sahlgrenska University Hospital. Ethics approval was not needed since the buffy coats were provided anonymously and could not be traced back to a specific individual. This is in line with Swedish legislation section code 4§ 3p SFS 2003:460 (Lag om etikprövning av forskning som avser människor).
as §1

Fpr2 [3] = molecular target: T1, Fpr2; design: method as in PMID 27614010; conditions: ref [12]; cited from earlier work
Description: When looking at the FPRs in different species it is clear that the receptor family has a complex evolutionary history, as illustrated by the fact that the number of genes in the family vary markedly in mouse and man. […] As different mouse models constitute important tools for translational studies aiming to understa ... || Genetically modified mouse strains and mouse disease models provide excellent tools to study the function of neutrophil FPRs in vivo. Such studies have indicated Fprs (in particular Fpr2) as important regulators of the physiological processes leading to resolution of inflammation. However, a direct translation of mouse data to human studies is hampered due to the distant phylogenetic relationship between mouse and human receptors. In addition to the different number of Fpr genes in mice and humans and an incomplete understanding of the evolutionary relationship between human FPRs ...

[4] = molecular target: formyl peptide receptor Fpr2, mouse (mouse (endogenous in bone marrow neutrophils)) (UniProt O88536)
[5] = molecular target: formyl peptide receptor Fpr2, mouse (mouse (endogenous in bone marrow neutrophils)) (UniProt O88536); remark: listed apart in the source

effect of inhibitor on F2Pal16 response, WT mouse neutrophils (Fpr2 [1]): no effect on the pepducin response
Molecule: Boc-FLFLF [Boc2, Fpr1 antagonist]
effect of inhibitor on F2Pal16 response, Fpr2^-/- neutrophils (Fpr2^-/- neutrophils): insensitive to Boc2; also recorded: no effect on the pepducin response
effect of inhibitor on fMIFL response, Fpr2^-/- neutrophils (Fpr1): completely abolished

Molecule: Cyclosporin H
effect of inhibitor on F2Pal16 response, human neutrophils (FPR2 [2]): not by the FPR1 inhibitor cyclosporine H
activity at mouse Fprs (earlier work) (Fpr2 [3]): lack effects on their mouse counterparts

EC50 of superoxide release by wild-type mouse neutrophils, dose-response of F1Pal16 [4]: 300 nM
B1: F1Pal16 pepducin (Pal-…) (peptide)
peptide: Palmitoyl-KIHKQGLIKSSRPLRV

EC50 of superoxide release by wild-type mouse neutrophils, dose-response of F2Pal16 (maximum at 1 uM) [5]: 300 nM
B2: F2Pal16 pepducin (Pal-…) (peptide)
peptide: Palmitoyl-KIHKKGMIKSSRPLRV
